Test results from ChEMBL document CHEMBL1201862, “PubChem BioAssay data set” (2004).
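Step 1: Grow cells in 96-well plates. Step 2: Expose to compound for 48 hours at 5 concentrations. Step 3: Interpolate endpoints linearly; if unreached, use highest concentration. At the GI50, growth is halved.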 Activity calls are given as the source filed them. Rule as the data show it: active = GI50 up to about 1.1 µM and inactive = higher.

Tests used:
Test in all cases: NCI anticancer screen, dose series, 48 h
NCI-H522 = system: NCI-H522
T47D = system: T47D
SK-MEL-5 = system: SK-MEL-5
RXF 393 = system: RXF 393
OVCAR-8 = system: OVCAR-8
NCI-H226 = system: NCI-H226
A549 = system: A549
SNB-75 = system: SNB-75
M14 = system: M14
SK-MEL-28 = system: SK-MEL-28
BT-549 = system: BT-549
UACC-62 = system: UACC-62
MDA-MB-231 = system: MDA-MB-231
ACHN = system: ACHN
COLO 205 = system: COLO 205
EKVX = system: EKVX
KM12 = system: KM12
SNB-19 = system: SNB-19
CCRF-CEM = system: CCRF-CEM
SN12C = system: SN12C
Hs-578T = system: Hs-578T
CAKI-1 = system: CAKI-1
786-0 = system: 786-0
OVCAR-3 = system: OVCAR-3
OVCAR-5 = system: OVCAR-5
HCT-15 = system: HCT-15
MDA-N = system: MDA-N
HOP-92 = system: HOP-92
HCC 2998 = system: HCC 2998
IGROV-1 = system: IGROV-1
TK-10 = system: TK-10
HT-29 = system: HT-29
MCF7 = system: MCF7
SW-620 = system: SW-620
SF-268 = system: SF-268
A498 = system: A498
Malme-3M = system: Malme-3M
K562 = system: K562
SK-OV-3 = system: SK-OV-3
SF-295 = system: SF-295
PC-3 = system: PC-3
LOX IMVI = system: LOX IMVI
SF-539 = system: SF-539
SR = system: SR
NCI-H460 = system: NCI-H460
OVCAR-4 = system: OVCAR-4
UO-31 = system: UO-31
RPMI-8226 = system: RPMI-8226
HL-60 = system: HL-60
MOLT-4 = system: MOLT-4
HCT-116 = system: HCT-116
NCI/ADR-RES = system: NCI/ADR-RES
HOP-62 = system: HOP-62
DU-145 = system: DU-145
NCI-H23 = system: NCI-H23
SK-MEL-2 = system: SK-MEL-2
UACC-257 = system: UACC-257
MDA-MB-435 = system: MDA-MB-435
U-251 = system: U-251

## CCOc1cc2c(cc1O)C=C[C@@H]1[C@@H]2CC[C@]2(C)[C@@H](O)CC[C@@H]12
NCI-H522
  GI50: 1.77 µM (inactive)
T47D
  GI50: 6.01 µM (inactive)
SK-MEL-5
  GI50: 1.97 µM (inactive)
RXF 393
  GI50: 7.29 µM (inactive)
OVCAR-8
  GI50: 4.29 µM (inactive)
NCI-H226
  GI50: 4.06 µM (inactive)
A549
  GI50: 4.27 µM (inactive)
SNB-75
  GI50: 3.3 µM (inactive)
M14
  GI50: 2.8 µM (inactive)
SK-MEL-28
  GI50: 22.3 µM (inactive)
BT-549
  GI50: 13.9 µM (inactive)
UACC-62
  GI50: 4.07 µM (inactive)
MDA-MB-231
  GI50: 4.11 µM (inactive)
ACHN
  GI50: 11.6 µM (inactive)
COLO 205
  GI50: 21.1 µM (inactive)
EKVX
  GI50: 4.79 µM (inactive)
KM12
  GI50: 5.3 µM (inactive)
SNB-19
  GI50: 3.52 µM (inactive)
CCRF-CEM
  GI50: 3.15 µM (inactive)
SN12C
  GI50: 4.52 µM (inactive)
Hs-578T
  GI50: 4.19 µM (inactive)
CAKI-1
  GI50: 5.28 µM (inactive)
786-0
  GI50: 4.35 µM (inactive)
OVCAR-3
  GI50: 1.87 µM (inactive)
OVCAR-5
  GI50: 27.6 µM (inactive)
HCT-15
  GI50: 0.562 µM
MDA-N
  GI50: 0.33 µM (active)
HOP-92
  GI50: 29.9 µM (inactive)
HCC 2998
  GI50: 6.34 µM (inactive)
IGROV-1
  GI50: 2.88 µM (inactive)
TK-10
  GI50: 14.4 µM (inactive)
HT-29
  GI50: 10 µM (inactive)
MCF7
  GI50: 3.61 µM (inactive)
SW-620
  GI50: 1.87 µM (inactive)
SF-268
  GI50: 9.06 µM (inactive)
A498
  GI50: 7.11 µM (inactive)
Malme-3M
  GI50: 1.5 µM (inactive)
K562
  GI50: 1.8 µM (inactive)
SK-OV-3
  GI50: 3.34 µM (inactive)
SF-295
  GI50: 1.91 µM (inactive)
PC-3
  GI50: 3.64 µM (inactive)
LOX IMVI
  GI50: 3.87 µM (inactive)
SF-539
  GI50: 2.04 µM (inactive)
SR
  GI50: 0.472 µM (active)
NCI-H460
  GI50: 2.05 µM (inactive)
OVCAR-4
  GI50: 24.9 µM (inactive)
UO-31
  GI50: 6.08 µM (inactive)
RPMI-8226
  GI50: 2.52 µM (inactive)
HL-60
  GI50: 0.579 µM (active)
MOLT-4
  GI50: 2.91 µM (inactive)
HCT-116
  GI50: 1.11 µM (active)
NCI/ADR-RES
  GI50: 1.37 µM (inactive)
HOP-62
  GI50: 3.85 µM (inactive)
DU-145
  GI50: 1.53 µM (inactive)
NCI-H23
  GI50: 3.85 µM (inactive)
SK-MEL-2
  GI50: 4.38 µM (inactive)
UACC-257
  GI50: 12.5 µM (inactive)
MDA-MB-435
  GI50: 0.334 µM (active)
U-251
  GI50: 3.43 µM (inactive)

## CSc1c(C#N)c(O)n(-c2ccc(C)cc2)c(=O)c1C#N
NCI-H522
  GI50: > 100 µM (inactive)
T47D
  GI50: > 100 µM (inactive)
SK-MEL-5
  GI50: > 100 µM (inactive)
RXF 393
  GI50: > 100 µM (inactive)
OVCAR-8
  GI50: > 100 µM (inactive)
NCI-H226
  GI50: > 100 µM (inactive)
A549
  GI50: > 100 µM (inactive)
SNB-75
  GI50: > 100 µM (inactive)
M14
  GI50: > 100 µM (inactive)
SK-MEL-28
  GI50: > 100 µM (inactive)
BT-549
  GI50: > 100 µM (inactive)
UACC-62
  GI50: > 100 µM (inactive)
MDA-MB-231
  GI50: > 100 µM (inactive)
COLO 205
  GI50: > 100 µM (inactive)
EKVX
  GI50: > 100 µM (inactive)
KM12
  GI50: > 100 µM (inactive)
SNB-19
  GI50: > 100 µM (inactive)
SN12C
  GI50: > 100 µM (inactive)
Hs-578T
  GI50: > 100 µM (inactive)
CAKI-1
  GI50: > 100 µM (inactive)
786-0
  GI50: > 100 µM (inactive)
OVCAR-3
  GI50: > 100 µM (inactive)
OVCAR-5
  GI50: > 100 µM (inactive)
HCT-15
  GI50: > 100 µM
MDA-N
  GI50: > 100 µM (inactive)
HOP-92
  GI50: > 100 µM (inactive)
HCC 2998
  GI50: > 100 µM (inactive)
IGROV-1
  GI50: > 100 µM (inactive)
TK-10
  GI50: > 100 µM (inactive)
HT-29
  GI50: > 100 µM (inactive)
MCF7
  GI50: > 100 µM (inactive)
SW-620
  GI50: > 100 µM (inactive)
SF-268
  GI50: > 100 µM (inactive)
A498
  GI50: > 100 µM (inactive)
Malme-3M
  GI50: > 100 µM (inactive)
K562
  GI50: > 100 µM (inactive)
SK-OV-3
  GI50: > 100 µM (inactive)
PC-3
  GI50: > 100 µM (inactive)
LOX IMVI
  GI50: > 100 µM (inactive)
SF-539
  GI50: > 100 µM (inactive)
SR
  GI50: > 100 µM (inactive)
NCI-H460
  GI50: > 100 µM (inactive)
OVCAR-4
  GI50: > 100 µM (inactive)
UO-31
  GI50: > 100 µM (inactive)
RPMI-8226
  GI50: > 100 µM (inactive)
HL-60
  GI50: > 100 µM (inactive)
MOLT-4
  GI50: > 100 µM (inactive)
HCT-116
  GI50: > 100 µM (inactive)
NCI/ADR-RES
  GI50: > 100 µM (inactive)
DU-145
  GI50: > 100 µM (inactive)
NCI-H23
  GI50: > 100 µM (inactive)
SK-MEL-2
  GI50: > 100 µM (inactive)
UACC-257
  GI50: > 100 µM (inactive)
MDA-MB-435
  GI50: > 100 µM (inactive)
U-251
  GI50: > 100 µM (inactive)
